Source: PubChem BioAssay (NCI)
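Exposure lasted 48 hours, with cells grown in 96-well plates and compounds tested at five concentrations. Definition used: TGI = concentration required for complete inhibition of growth.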

Legend:
Experiment in all cases: NCI anticancer screen, dose series, 48 h
OVCAR-3 ovarian = tested on: OVCAR-3 ovarian
COLO 205 colon = tested on: COLO 205 colon
MDA-N = tested on: MDA-N
CAKI-1 renal = tested on: CAKI-1 renal
SF-539 CNS = tested on: SF-539 CNS
SN12C renal = tested on: SN12C renal
NCI/ADR-RES ovarian = tested on: NCI/ADR-RES ovarian
SK-MEL-28 melanoma = tested on: SK-MEL-28 melanoma
SF-295 CNS = tested on: SF-295 CNS
HOP-92 NSCLC = tested on: HOP-92 NSCLC
HOP-62 NSCLC = tested on: HOP-62 NSCLC
OVCAR-4 ovarian = tested on: OVCAR-4 ovarian
A498 renal = tested on: A498 renal
SK-MEL-5 melanoma = tested on: SK-MEL-5 melanoma
HCT-116 colon = tested on: HCT-116 colon
RPMI-8226 leukemia = tested on: RPMI-8226 leukemia
NCI-H226 lung = tested on: NCI-H226 lung
EKVX NSCLC = tested on: EKVX NSCLC
MDA-MB-231 breast = tested on: MDA-MB-231 breast
U251 CNS = tested on: U251 CNS
HCC-2998 colon = tested on: HCC-2998 colon
MOLT-4 leukemia = tested on: MOLT-4 leukemia
MALME-3M melanoma = tested on: MALME-3M melanoma
786-0 renal = tested on: 786-0 renal
UO-31 renal = tested on: UO-31 renal
UACC-257 melanoma = tested on: UACC-257 melanoma
NCI-H460 lung = tested on: NCI-H460 lung
ACHN renal = tested on: ACHN renal
MCF7 breast = tested on: MCF7 breast
CCRF-CEM leukemia = tested on: CCRF-CEM leukemia
NCI-H522 lung = tested on: NCI-H522 lung
OVCAR-5 ovarian = tested on: OVCAR-5 ovarian
KM12 colon = tested on: KM12 colon
OVCAR-8 ovarian = tested on: OVCAR-8 ovarian
PC-3 prostate = tested on: PC-3 prostate
RXF 393 renal = tested on: RXF 393 renal
MDA-MB-435 = tested on: MDA-MB-435
SW-620 colon = tested on: SW-620 colon
SNB-19 CNS = tested on: SNB-19 CNS
SK-MEL-2 melanoma = tested on: SK-MEL-2 melanoma
SNB-75 CNS = tested on: SNB-75 CNS
NCI-H23 lung = tested on: NCI-H23 lung
TK-10 renal = tested on: TK-10 renal
HL-60(TB) leukemia = tested on: HL-60(TB) leukemia
M14 melanoma = tested on: M14 melanoma
SK-OV-3 ovarian = tested on: SK-OV-3 ovarian
T-47D breast = tested on: T-47D breast
BT-549 breast = tested on: BT-549 breast
HT29 colon = tested on: HT29 colon
IGROV1 ovarian = tested on: IGROV1 ovarian
SF-268 CNS = tested on: SF-268 CNS
LOX IMVI melanoma = tested on: LOX IMVI melanoma
UACC-62 melanoma = tested on: UACC-62 melanoma
HS 578T breast = tested on: HS 578T breast
DU-145 prostate = tested on: DU-145 prostate
HCT-15 colon = tested on: HCT-15 colon
A549 NSCLC = tested on: A549 NSCLC
K-562 leukemia = tested on: K-562 leukemia

Nc1nc(Cl)c(N=Nc2ccc(Cl)cc2)c(NCC2(CO)CCC(CCc3ccccc3)C2)n1 (stereo not drawn)
TGI (OVCAR-3 ovarian): 23.6 µM | TGI (COLO 205 colon): 19.4 µM | TGI (MDA-N): 30.2 µM | TGI (CAKI-1 renal): 13.5 µM | TGI (SF-539 CNS): 34.5 µM | TGI (SN12C renal): 30.2 µM | TGI (NCI/ADR-RES ovarian): 34.4 µM | TGI (SK-MEL-28 melanoma): 35.3 µM | TGI (SF-295 CNS): 25.7 µM | TGI (HOP-92 NSCLC): 29.3 µM | TGI (HOP-62 NSCLC): 28.1 µM | TGI (OVCAR-4 ovarian): 10.6 µM | TGI (A498 renal): 27.3 µM | TGI (SK-MEL-5 melanoma): 13.6 µM | TGI (HCT-116 colon): 20.2 µM | TGI (RPMI-8226 leukemia): 32.9 µM | TGI (NCI-H226 lung): 19.4 µM | TGI (EKVX NSCLC): 28.3 µM | TGI (MDA-MB-231 breast): 31.2 µM | TGI (U251 CNS): 31.2 µM | TGI (HCC-2998 colon): 17.3 µM | TGI (MOLT-4 leukemia): 8.49 µM | TGI (MALME-3M melanoma): 51 µM | TGI (786-0 renal): 21.6 µM | TGI (UO-31 renal): 4.31 µM | TGI (UACC-257 melanoma): 25.1 µM | TGI (NCI-H460 lung): 30.6 µM | TGI (ACHN renal): 19.9 µM | TGI (MCF7 breast): 19.5 µM | TGI (CCRF-CEM leukemia): 8.84 µM | TGI (NCI-H522 lung): 5.42 µM | TGI (OVCAR-5 ovarian): 31.3 µM | TGI (KM12 colon): 26.9 µM | TGI (OVCAR-8 ovarian): 19.3 µM | TGI (PC-3 prostate): 25.8 µM | TGI (RXF 393 renal): 22.2 µM | TGI (MDA-MB-435): 23.7 µM | TGI (SW-620 colon): 17 µM | TGI (SNB-19 CNS): 48.7 µM | TGI (SK-MEL-2 melanoma): 33.5 µM | TGI (SNB-75 CNS): 28 µM | TGI (NCI-H23 lung): 15.6 µM | TGI (TK-10 renal): 27.5 µM | TGI (HL-60(TB) leukemia): 20.9 µM | TGI (M14 melanoma): 31.5 µM | TGI (SK-OV-3 ovarian): 26.1 µM | TGI (T-47D breast): 32.2 µM | TGI (BT-549 breast): 23.4 µM | TGI (HT29 colon): 30.4 µM | TGI (IGROV1 ovarian): 23.4 µM | TGI (SF-268 CNS): 33.4 µM | TGI (LOX IMVI melanoma): 4.59 µM | TGI (UACC-62 melanoma): 22.1 µM | TGI (HS 578T breast): > 55.3 µM | TGI (DU-145 prostate): 25.9 µM | TGI (HCT-15 colon): 24.7 µM | TGI (A549 NSCLC): 51.7 µM | TGI (K-562 leukemia): 9.78 µM
